# According to US10160972B2, “Methods and materials for treating cancer” (Mayo Foundation for Medical Education and Research, priority 2012, dated 2018):
# Tests used:
# [1] = system: A498 ccRCC cell line; conditions: read-out: IC50, decrease in proliferation; A498, day 5
# Method: (§1) ccRCC cell lines: RWV366T and KIJ265T (16) (both stage IV ccRCC patient tissue derived), A498, Caki1, Caki2, and ACHN (ATCC) and K347N, K355N, K359N, K360N, K365N, and K366N normal renal tissue derived mortal cells (NRE) were cultured in DMEM medium (Cellgro) containing 5% FBS (Hyclone) and 1× penicillin-streptomycin (Invitrogen) at 37° C. in humidified conditions with 5% CO2.
# (§2) Cells were plated (0.5 or 1×10^5/well) in 24-well plates for proliferation or treatment assays, in triplicate. Cells were trypsinized (0.25%) and counted using a Coulter Particle Counter at specified time intervals. For SCD1 rescue assays, oleic acid-albumin was added to media at 5 μM. Drug stocks were prepared in DMSO. […] Temsirolimus dosing was performed as described in the text. Soft agar cultures were prepared by diluting 2× growth medium 1:1 in 1.5% Seaplaque®GTG® agarose, with 500 cells/plate in 60 mm culture dishes. Colonies were stained with Giemsa (LabChem Inc.) and counted after 3 wks. Cell images were obtained with an OlympusIX71 microscope at 20× magnification.
# [2] = system: ACHN ccRCC cell line; conditions: read-out: IC50, decrease in proliferation, day 5
# Method: as §1, §2
# [3] = system: Caki1 ccRCC cell line; conditions: read-out: IC50, decrease in proliferation; Caki1, day 5
# Method: as §1, §2
# [4] = system: Caki2 ccRCC cell line; conditions: read-out: IC50, decrease in proliferation; Caki2, day 5
# Method: as §1, §2
# [5] = system: Caki1, A498, Caki2, and ACHN ccRCC cell lines; assay: OA-BSA rescue of growth inhibition; assay type: cell-based, human; conditions: IC50 doses of A939572 + OA-BSA vs DMSO+BSA control, all four cell lines
# Method: Drug stocks were prepared in DMSO. Monotherapeutic treatment identified drug dose-response. […] Temsirolimus dosing was performed as described in the text.
# [6] = system: A498 cells; assay: qPCR of five ER stress genes; assay type: cell-based, human
# Method: (§3) An RNAqueous Midi Kit was utilized to extract and purify RNA from cell lines. Human tissue RNA was prepared using TRIzol® per manufacturer's protocol followed by purification using the RNAqueous Midi Kit. The O.D. 260/280 ratio of the mRNA was at least 1.8 and the 18s/28s bands were verified on a 1% agarose gel. cDNA was prepared from purified RNA samples using High Capacity cDNA Reverse Transcriptase Kit per manufacturer's instruction. TaqMan®Fast Universal PCR Master Mix and TaqMan®FAMTM dye-labeled probes including POLR2A (Hs00172187_m1) (normalization control), SCD1 (Hs01682761_m1), HSPA5 (Hs99999174_m1), CEBPβ (CEBPB Hs00270923_s1), GADD45A (Hs00169255_m1), DDIT3 (Hs01090850_m1), and HERPUD1 (Hs01124269_m1) were combined with prepared cDNA samples to analyze relative mRNA expression via qPCR. Fold change values were compared between normal and tumor, non-target scrambled lentiviral and target lentiviral infected, and DMSO vs. A939572 treated samples using the ΔΔCt method (Schmittgen T D, Livak K J. Analyzing real-time PCR data by the comparative C(T) method. Nat Protoc. 2008; 3:1101-8).
# (§4) In order to validate the specificity of ER stress induction mediated by both A939572 and shSCD780, rescue assays were performed using OA-BSA in Caki1 and A498 cells qPCR analysis of five ER stress genes identified in the gene array including BiP, CHOP, HERPUD1 (homocysteine-inducible, ER-stress inducible, ubiquitin-like-1), GADD45a (DNA damage inducible transcript 1, DDIT1), and CEBPβ (CCAAT/enhancer binding protein beta) were examined.
# [7] = system: Caki1 cells; assay: qPCR of five ER stress genes; assay type: cell-based, human
# Method: as §3, §4
smiles,measurement,setting,value
CNC(=O)c1cccc(NC(=O)N2CCC(Oc3ccccc3Cl)CC2)c1 [A939572],IC50,[1],50 nM
same,IC50,[2],6 nM
same,IC50,[3],65 nM
same,IC50,[4],65 nM
same,growth inhibition with addition of OA-BSA,[5],prevented A939572 mediated growth inhibition
same,ER stress gene expression with addition of OA-BSA,"[6]; A498, + OA-BSA",blocked
same,"mRNA expression of ER stress genes BiP, CHOP, HERPUD1, GADD45a, CEBPβ","[6]; A498, vs DMSO+BSA or NT control",significantly increased levels
same,ER stress gene expression with addition of OA-BSA,"[7]; Caki1, + OA-BSA",blocked
same,"mRNA expression of ER stress genes BiP, CHOP, HERPUD1, GADD45a, CEBPβ","[7]; Caki1, vs DMSO+BSA or NT control",significantly increased levels
